# Laboratory results as given in patent publication US4895852A, “Antitumor alkaloids” (Harbor Branch Oceanographic Institution, Inc., priority 1987, dated 1990).
# Tested on: P388 mouse leukemia cells
# Assay: P388 mouse leukemia cell assay
# Assay type: cell-based
# Conditions: for minimal effective concentration: P388, 48 h, summary sentence on Table 1, mouse leukemia cells, read-out: good antitumor activity at concentrations of at least (against mouse leukemia cells); for IC50: P388 mouse leukemia cells, 48 hours, 37°, 10% CO2
# Method: P388 mouse leukemia cells are grown in Dulbecco MEM medium with 10% horse serum, 4mM glutamine, and 20ug/ml gentamycin (Biologos, Inc.). Cells are incubated in 10% CO2 and subcultured 2 times per week.
# 1. Add compound to each well of a 24-well plate or tube and allow solvent to evaporate to dryness.
# 2. Add 2ml (1.2×10^5) cells to each well or tube and mix.
# 3. Incubate in 10% CO2 , at 37° for 48 hours.
# 4. Read platees with an inverted microscope, scoring activity from 1+ to 4+ as follows: ND (not detectable), >90%; 1+, 75-90%; 2+, 50-74%; 3+, 25-49%; 4+, <25% of control growth. Cell counts are performed on each tube and results are reported as percent of control. Alternatively, scoring may be expressed as IC50 which represents the minimum concentration of the composition required to inhibit 50% of the cell growth on the plate. […]
smiles,measurement,value
O=C1CCCN2[C@@H](CC1)C[C@]13CN4CCCC/C=C\CC[C@](O)(C=C(c5nccc6c5[nH]c5c(O)cccc56)C1CC4)[C@H]23 (stereo partly shown) [Manzamine F],minimal effective concentration,≥ 5 µg/mL
same,IC50,5 µg/mL
O=C1CCCN2C(CC1)CC13CN4CCCCC=CCCC(O)(C=C(c5nccc6c5[nH]c5ccccc56)C1CC4)C23 (stereo not shown) [Manzamine E],minimal effective concentration,≥ 5 µg/mL
same,IC50,5 µg/mL
